Among the data in patent publication US20050245563A1 (Millennium Pharmaceuticals, Inc., priority 2003, published 2005) are IC50 values, retold here.

Bounds are passed on as bounds.

In this assay the target is T1, human Chk1 (GST-Chk1) (Homo sapiens, UniProt O14757).
T1 construct: made in house; host or cells: insect cells (baculovirus, Bac-to-Bac)
T1 sequence (O14757 1-476): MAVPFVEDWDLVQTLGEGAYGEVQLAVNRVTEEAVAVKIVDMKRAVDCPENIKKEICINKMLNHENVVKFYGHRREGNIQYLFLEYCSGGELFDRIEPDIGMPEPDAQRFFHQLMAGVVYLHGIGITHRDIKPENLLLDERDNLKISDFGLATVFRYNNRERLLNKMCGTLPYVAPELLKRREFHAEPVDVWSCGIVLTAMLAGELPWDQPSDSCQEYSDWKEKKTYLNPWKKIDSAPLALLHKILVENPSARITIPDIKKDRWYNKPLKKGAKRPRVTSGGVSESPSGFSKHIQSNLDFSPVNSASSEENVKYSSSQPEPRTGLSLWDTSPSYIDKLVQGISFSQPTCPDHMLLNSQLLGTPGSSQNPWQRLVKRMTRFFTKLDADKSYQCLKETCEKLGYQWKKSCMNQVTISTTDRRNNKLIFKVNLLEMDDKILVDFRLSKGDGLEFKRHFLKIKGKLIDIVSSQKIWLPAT
Kind of assay: Chk1 FlashPlate kinase assay. It is filed as biochemical. Conditions: 8.7 nM GST-Chk1, 1 uM ATP, 33P incorporation into peptide substrate. The method, boiled down: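 GST-tagged human Chk1 (8.7 nM), baculovirus-expressed, with 3 uM biotinylated peptide, 1 uM ATP plus ^33P-γ-ATP, in MES/EGTA pH 8.0, DTT, Tween 20, 4% DMSO; 30 min at room temperature. EDTA-stopped; phosphopeptide captured on streptavidin FlashPlates and ^33P counted by scintillation.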
By IC50 is commonly meant the point on the concentration scale where inhibition reaches its midpoint. A higher IC50 goes with lower potency. `Cc1[nH]nc2c1c(=O)n(CCNS(=O)(=O)c1ccccc1)c1ccccc21` [Example 110, N-[2-(3-Methyl-4-oxo-2,4-dihydro-pyrazolo[4,3-c]quinolin-5-yl)-ethyl]-benzene sulfonamide]: the half-inhibitory concentration (IC50) was 1000 to 20000 nM.
`Cc1[nH]nc2c1c(=O)n(CCNC(=O)N1CCOCC1)c1ccccc21` [Example 112, Morpholine-4-carboxylic acid [2-(3-methyl-4-oxo-2,4-dihydro-pyrazolo[4,3-c]quinolin-5-yl)-ethyl]-amide]: the IC50 is 1000 to 20000 nM.
As to `CCCCNc1ccc2c(c1)c1n[nH]c(C)c1c(=O)n2CCCN` [Example 116], the IC50 is below 1000 nM.
In the case of `Cc1[nH]nc2c1c(=O)n(CCCNC(=O)C(N)Cc1ccc(Cl)cc1)c1ccccc21` (centres unmarked) [Example 117, 2-Amino-3-(4-chloro-phenyl)-N-[3-(3-methyl-4-oxo-2,4-dihydro-pyrazolo[4,3-c]quinolin-5-yl)-propyl]-propionamide], the IC50 was below 1000 nM.
The figure for `Cc1[nH]nc2c1c(=O)n(CCCNC(=O)OCc1ccccc1Br)c1ccccc21` [Example 119, [3-(3-Methyl-4-oxo-2,4-dihydro-pyrazolo[4,3-c]quinolin-5-yl)-propyl]-carbamic acid 2-bromo-benzyl ester] is below 1000 nM; for `Cc1[nH]nc2c1c(=O)n(CCCN)c1ccc(N3CCCC3)cc21` [Example 120] it is below 1000 nM.
`Cc1[nH]nc2c1c(=O)n(CCCN)c1ccc(N3CCN(C)CC3)cc21` [Example 121, 5-(3-Amino-propyl)-3-methyl-8-(4-methyl-piperazin-1-yl)-2,5-dihydro-pyrazolo[4,3-c]quinolin-4-one]: the IC50 was below 1000 nM.
With `Cc1[nH]nc2c1c(=O)n(CCCNC(=O)CN)c1ccccc21` [Example 122, 2-Amino-N-[3-(3-methyl-4-oxo-2,4-dihydro-pyrazolo[4,3-c]quinolin-5-yl)-propyl]-acetamide] the figure was below 1000 nM.
Turning to `Cc1[nH]nc2c1c(=O)n(CCCNC(=O)C(N)CCCCN)c1ccccc21` (centres unmarked) [Example 123, 2,6-Diamino-hexanoic acid [3-(3-methyl-4-oxo-2,4-dihydro-pyrazolo[4,3-c]quinolin-5-yl)-propyl]-amide], the 50% inhibitory concentration (IC50) is below 1000 nM.
Take `Cc1[nH]nc2c1c(=O)n(CCCNC(=O)CCN)c1ccccc21` [Example 124, 3-Amino-N-[3-(3-methyl-4-oxo-2,4-dihydro-pyrazolo[4,3-c]quinolin-5-yl)-propyl]-propionamide]: the half-inhibitory concentration (IC50) is below 1000 nM.
The compound `Cc1[nH]nc2c1c(=O)n(CCCNC(=O)c1ccc(OC(F)(F)F)cc1)c1ccccc21` [Example 125, N-[3-(3-Methyl-4-oxo-2,4-dihydro-pyrazolo[4,3-c]quinolin-5-yl)-propyl]-4-trifluoromethoxy-benzamide] showed an IC50 below 1000 nM.
